Assay [1] has as its target T1, AbATPPRT (Acinetobacter baumannii, UniProt A0A7U3XWM9).
T1 construct: gene hisG; hetero-octameric holoenzyme (two HisGS dimers flanking a HisZ tetramer) reconstituted in vitro from separately purified recombinant AbHisGS (E. coli BL21(DE3)) and AbHisZ; unlabelled (natural isotope abundance)
T1 sequence (A0A7U3XWM9 1-227): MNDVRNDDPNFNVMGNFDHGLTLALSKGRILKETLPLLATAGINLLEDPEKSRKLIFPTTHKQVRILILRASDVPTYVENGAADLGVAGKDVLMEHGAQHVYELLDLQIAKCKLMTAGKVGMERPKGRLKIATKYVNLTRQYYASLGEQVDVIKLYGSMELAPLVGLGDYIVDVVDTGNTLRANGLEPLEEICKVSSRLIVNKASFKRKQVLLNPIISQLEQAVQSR
T1 sequence (B2HWK9 1-388 partner): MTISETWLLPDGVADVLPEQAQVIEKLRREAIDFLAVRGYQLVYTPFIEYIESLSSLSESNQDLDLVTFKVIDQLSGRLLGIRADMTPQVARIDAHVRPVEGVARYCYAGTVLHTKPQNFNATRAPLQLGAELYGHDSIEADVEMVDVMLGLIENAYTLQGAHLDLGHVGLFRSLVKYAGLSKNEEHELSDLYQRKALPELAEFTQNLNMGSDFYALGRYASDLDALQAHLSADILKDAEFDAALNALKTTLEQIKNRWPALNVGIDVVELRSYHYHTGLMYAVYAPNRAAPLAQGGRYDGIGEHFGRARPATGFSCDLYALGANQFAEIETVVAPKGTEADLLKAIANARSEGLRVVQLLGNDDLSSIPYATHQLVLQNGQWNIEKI
As to the kind of experiment: differential scanning fluorimetry, SYPRO Orange. To be noted: 250 μM PRATP, 8 μM enzyme, pH 8.5, 15 mM MgCl2, 100 mM KCl; unlabelled enzyme. It is filed as binding. A general note: In DSF a fluorescence change marks the thermal transition of the protein.

In assay [2] the target is T1, AbATPPRT. As to the kind of experiment: dose-response of initial rate, PRATP formation. It is filed as biochemical.

`N=c1c2ncn([C@@H]3O[C@H](COP(=O)(O)OP(=O)(O)OP(=O)(O)O)[C@@H](O)[C@H]3O)c2ncn1[C@@H]1O[C@H](COP(=O)(O)O)[C@@H](O)[C@H]1O` [PRATP]: at AbATPPRT [1], the Tm increase entry is “the presence of PRATP led only to marginal and mass-independent increases in Tm”. A word on the IC50: it is the midpoint of a concentration-inhibition curve. Read a high IC50 as a need for much substance. In the case of `N[C@@H](Cc1c[nH]cn1)C(=O)O` [histidine], at AbATPPRT [2], the half-inhibitory concentration (IC50) was 93 ± 6 µM.
